Results as given in patent US20070015739A1, “Use of non-antibacterial tetracycline formulations for inhibiting bacterial spores” (priority 2005, published 2007).
Entries after “also recorded” stand apart in the source; their conditions may differ. Read-outs that look alike come from different tables or passages of the source.

Key:
[1] = tested on: spores (Bacillus cereus ATCC 10987); type: cell-based
[2] = Plasma or serum concentration in humans; conditions: dose of about 10 to about 20 mg/day
[3] = tested on: Bacillus cereus ATCC 10987 spores; type: cell-based
B. anthracis spores = conditions: guinea pig, in vivo; cited from earlier work

**Q.** For `NC(=O)C1=C(O)C[C@@H]2C[C@@H]3Cc4cccc(O)c4C(=O)C3=C(O)[C@]2(O)C1=O` [COL-3, 6-demethyl-6-deoxy-4-de(dimethylamino)tetracycline], which “early germination (Gram stain)” value [1] is on record?
**A.** The value was “occurred in both the presence and absence of COL-3”.

**Q.** What about the “minimum concentration to inhibit outgrowth” value [1] of the same compound?
**A.** Its value is 1 μg per ml.

**Q.** What about the “outgrowth into vegetative cells” value [1] of the same compound?
**A.** The value was “inhibited”.

**Q.** What about the “development of spores into vegetative cells (Gram stain)” value ([1]; time=40 min) of the same compound?
**A.** Its value is “no further development”.

**Q.** And the “development of spores into vegetative cells (Gram stain)” value ([1]; time=60 min)?
**A.** The value was “do not develop”.

**Q.** What about the “plasma or serum concentrations” value [2] of the same compound?
**A.** The value was “about 1.0 μg/ml”.

**Q.** What about the “rate of decrease in absorbance in the presence and absence of COL-3” value [3] of the same compound?
**A.** Its value is “not significantly different”.

**Q.** And the “inhibition of the early phase (initial stages) of germination” value ([3]; 37° C.)?
**A.** The value was “did not inhibit; also recorded: no effect”.

**Q.** Which “death of infected animals during treatment” value (B. anthracis spores) does the source give for `CN(C)[C@@H]1C(O)=C(C(N)=O)C(=O)[C@@]2(O)C(O)=C3C(=O)c4c(O)cccc4[C@@](C)(O)[C@H]3C[C@@H]12` [tetracycline] here?
**A.** Its value is “prevented death”.
